{
  "source": "patent US10239893B2",
  "about": "“Controlling the isomerization rate of Azo-BF2 switches using aggregation” (THE TRUSTEES OF DARTMOUTH COLLEGE, priority 2013, dated 2019)",
  "key": {"[1]": {"test": "Reversibility of photoswitching over repeated irradiation cycles", "type": "physicochemical", "settings": "CH2Cl2, alternating visible light irradiation", "description": "The photoisomerization of Compound 1 was studied extensively by UV/vis (FIG. 1) spectroscopy. When stored in the dark, Compound 1 adopts its thermodynamically stable trans form that has an absorption maximum (λmax) at 530 nm (ε=8026 M^−1 cm^−1). Upon irradiation at 570 nm, the cis form (λmax=480 nm; £=7792 M^−1 cm^−1) becomes dominant, accompanied by a sharp color change of the solution from bright purple to light orange. The process is also accompanied by changes in the intensity of bands at higher energies (λmax=340 and 264 nm). Irradiation at 450 nm drives the system back to its trans form. […] The trans/cis isomerization can be activated solely by the use of visible light and there is no need for UV light.\nThe synthesis of the azo-BF2 complex 10 started from the hydrazone-based switch,^18 followed by the coupling reaction with BF3.OEt2^19 (Scheme 7). The product was fully characterized using NMR spectroscopy and mass spectrometry (FIGS. 62-76). […] Upon irradiation with a 600 nm light source, E to Z isomerization takes place (isosbestic points at 318, 406, and 508 nm) leading to a new band with a λmax at 501 nm, and e of 11209 M^−1·cm^−1 (FIGS. 58 and 81). The isomerization is accompanied with a significant color change of the solution from purple to dark orange (FIG. 58b)."}, "[2]": {"test": "Isomer ratios under dark and at photostationary states by 1H NMR", "type": "physicochemical", "settings": "for PSS isomer ratio, cis, irradiation at 710 nm (PSS710): lowest estimation because of fast thermal relaxation", "experimental": "^1H NMR spectroscopy was employed to evaluate the photo-switching efficiency of 10 in CD2Cl2 (0.53 mM).\n[…] The LEDs were affixed in a custom irradiation chamber fitted with a cooling fan to maintain ambient temperature. The light intensities at 430 and 600 nm were determined using chemical actinometry^S1 and a Thorlabs optical power meter, respectively. Photoisomerization quantum yields were measured by monitoring the proton integral change in trans/cis isomers after 430 and 600 nm irradiation for 2 and 20 s, respectively. Each quantum yield measurement was repeated three times under the same conditions. The photostationary states (PSS) were determined upon continuous irradiation until no further isomerization was observed using ^1H NMR spectroscopy. PBS buffer is an aqueous solution prepared by dissolving Na2HPO4 (1.420 g), KH2PO4 (0.245 g) NaCl (8.007 g) and KCl (0.201 g) in 1 L deionized water."}, "[3]": {"test": "Thermal cis→trans isomerization kinetics followed by UV/Vis in CH2Cl2", "settings": "deoxygenated CH2Cl2, 294 K, starting from cis PSS, average of three measurements", "quoted_text": "The thermal isomerization process was monitored by measuring the change in absorption intensity at 480 nm as a function of time (at 1 min intervals).\nThe thermal isomerization process was monitored by measuring the change in absorption intensity at 594 nm as a function of time (at 1 min intervals)."}, "[4]": {"test": "Stability (hydrolysis) in acetonitrile:PBS buffer (1:1), followed by UV-Vis", "type": "physicochemical", "settings": "acetonitrile:PBS (1:1), 25° C.", "experimental": "(§1) The stability of the switches in an aqueous environment was tested by conducting multiple switching cycles (10 cycles shown in FIG. 22a) of 4 in an acetonitrile:PBS buffer (1:1) mixed solvent system. These experiments were conducted by irradiating the sample using 710 nm light, followed by thermal relaxation under dark. […] The stability of switch 4 to reduction by glutathione (GSH) was also tested. The switch was incubated in 10 mM reduced glutathione in acetonitrile:PBS buffer (1:1) solution.\nAll reagents and starting materials were purchased from commercial vendors and used without further purification. Column chromatography was performed on silica gel (Silicycle, 230-400 mesh). The melting points were measured on an Electrothermal 9100 instrument in open capillary tubes without thermometer correction. Deuterated solvents were purchased from Cambridge Isotope Laboratories and used as received. ^1H NMR and ^13C NMR spectra were recorded on a 500 MHz spectrometer, with working frequencies of 499.87 MHz for ^1H nuclei and 125.7 MHz for ^13C nuclei, respectively. ^19F NMR spectra were recorded on a 300 MHz spectrometer, with working frequency of 282.2 MHz for ^19F nuclei. Chemical shifts are expressed in ppm relative to tetramethylsilane, using the residual solvent peak as a reference standard. GC-MS spectra were measured on a Shimadzu Gas Chromatograph/Mass Spectrometer (GCMS-QP2010Plus). UV-Vis spectra were recorded on a Shimadzu UV-Vis spectrophotometer (UV-1800). Irradiation experiments were conducted with sufficient stirring using a Newport mercury lamp (67005-414) equipped with a Jarrell-Ash light monochromator. The 710 nm Near IR light source was built with appropriate LED light bulbs (LED710-lau AlGaAs Infrared LEDs purchased from Roithner Lasertechnik GmbH). PBS buffer is an aqueous solution prepared with 11.9 mM sodium phosphate (pH 7.3-7.4), 137 mM NaCl and 2.7 mM KCl."}, "[5]": {"test": "Thermal cis→trans relaxation followed by 1H NMR in CD2Cl2", "type": "physicochemical", "settings": "CD2Cl2 at 294 K, starting from PSS710", "description": "Unaltered CD2Cl2 solution of compound 4 in a quartz NMR tube was irradiated at 710 nm until its photostationary state was reached."}, "[6]": {"test": "Stability to reduction by glutathione, 10 mM GSH in acetonitrile:PBS buffer (1:1)", "type": "physicochemical", "settings": "for degradation half-life with GSH: acetonitrile:PBS (1:1) with 10 mM GSH, 25° C.", "experimental": "as §1"}},
  "note": "Several values for one entry are separate records, joined by “and”; a condition that tells them apart may be missing. Equal values may be shown once.",
  "data": [
    {"smiles": "N#CC1=C2C=Cc3ccccc3N2[B-](F)(F)[N+]1=Nc1ccccc1", "note": "[Compound 1]", "values": [
      {"measurement": "reversibility / degradation on repeated photoisomerization (in words)", "setting": "[1]", "value": "no degradation"}
    ]},
    {"smiles": "COc1ccc(N=[N+]2C(C#N)=C3C=Cc4ccccc4N3[B-]2(F)F)cc1", "note": "[Compound 2]", "values": [
      {"measurement": "trans isomer ratio under dark", "setting": "[2]", "value": 93, "unit": "%"},
      {"measurement": "PSS isomer ratio, cis, irradiation at 630 nm (PSS630)", "setting": "[2]; CD2Cl2 at 294 K", "value": "96% and 96±1%"},
      {"measurement": "PSS isomer ratio, trans, irradiation at 490 nm (PSS490)", "setting": "[2]; CD2Cl2 at 294 K", "value": "92% and 92±1%"}
    ]},
    {"smiles": "COc1ccc(N=[N+]2C(C#N)=C3C=Cc4ccccc4N3[B-]2(F)F)c(OC)c1", "note": "[Compound 3]", "values": [
      {"measurement": "trans isomer ratio under dark", "setting": "[2]", "value": 58, "unit": "%"},
      {"measurement": "PSS isomer ratio, cis, irradiation at 640 nm (PSS640)", "setting": "[2]; CD2Cl2 at 294 K", "value": "79% and 79±1%"},
      {"measurement": "PSS isomer ratio, trans, irradiation at 490 nm (PSS490)", "setting": "[2]; CD2Cl2 at 294 K", "value": "56% and 56±1%"},
      {"measurement": "half-life (t1/2) of the cis→trans isomerization", "setting": "[3]", "value": 13.4, "unit": "h"}
    ]},
    {"smiles": "CN(C)c1ccc(N=[N+]2C(C#N)=C3C=Cc4ccccc4N3[B-]2(F)F)cc1", "note": "[Compound 4]", "values": [
      {"measurement": "trans isomer ratio under dark", "setting": "[2]", "value": 97, "unit": "%"},
      {"measurement": "PSS isomer ratio, cis, irradiation at 710 nm (PSS710)", "setting": "[2]; CD2Cl2 at 294 K", "value": "63% and 63±1%"},
      {"measurement": "degradation (hydrolysis) half-life", "setting": "[4]", "value": 2.3, "unit": "h"},
      {"measurement": "Half-life, cis→trans thermal relaxation", "setting": "[5]", "value": 0.0694, "unit": "h"},
      {"measurement": "stability to reduction by glutathione (in words)", "setting": "[6]; 10 mM reduced glutathione in acetonitrile:PBS buffer (1:1)", "value": "No obvious difference was observed in its degradation half-life"},
      {"measurement": "degradation half-life with GSH", "setting": "[6]", "value": 2.5, "unit": "h"}
    ]},
    {"smiles": "N#CC1=C2C=Cc3ccccc3N2[B-](F)(F)[N+]1=Nc1ccc(N2CCCCC2)cc1", "note": "[Compound 5]", "values": [
      {"measurement": "trans isomer ratio under dark", "setting": "[2]", "value": 98, "unit": "%"},
      {"measurement": "degradation (hydrolysis) half-life", "setting": "[4]", "value": 2, "unit": "h"},
      {"measurement": "Half-life, cis→trans thermal relaxation", "setting": "[5]", "value": 0.0417, "unit": "h"},
      {"measurement": "degradation half-life with GSH", "setting": "[6]", "value": 2.1, "unit": "h"}
    ]},
    {"smiles": "CN1CCN(c2ccc(N=[N+]3C(C#N)=C4C=Cc5ccccc5N4[B-]3(F)F)cc2)CC1", "note": "[Compound 6]", "values": [
      {"measurement": "trans isomer ratio under dark", "setting": "[2]", "value": 94, "unit": "%"},
      {"measurement": "PSS isomer ratio, cis, irradiation at 710 nm (PSS710)", "setting": "[2]; CD2Cl2 at 294 K", "value": "49% and 49±1%"},
      {"measurement": "degradation (hydrolysis) half-life", "setting": "[4]", "value": 1.2, "unit": "h"},
      {"measurement": "Half-life, cis→trans thermal relaxation", "setting": "[5]", "value": 0.111, "unit": "h"},
      {"measurement": "degradation half-life with GSH", "setting": "[6]", "value": 1.3, "unit": "h"}
    ]},
    {"smiles": "N#CC1=C2C=Cc3ccccc3N2[B-](F)(F)[N+]1=Nc1ccc(N2CCOCC2)cc1", "note": "[Compound 7]", "values": [
      {"measurement": "trans isomer ratio under dark", "setting": "[2]", "value": 97, "unit": "%"},
      {"measurement": "PSS isomer ratio, cis, irradiation at 710 nm (PSS710)", "setting": "[2]; CD2Cl2 at 294 K", "value": "83% and 82±1%"},
      {"measurement": "degradation (hydrolysis) half-life", "setting": "[4]", "value": 0.9, "unit": "h"},
      {"measurement": "Half-life, cis→trans thermal relaxation", "setting": "[5]", "value": 0.25, "unit": "h"},
      {"measurement": "degradation half-life with GSH", "setting": "[6]", "value": 1.0, "unit": "h"}
    ]}
  ]
}
